Reference: patent US20230126310A1 (priority 2020, published 2023)
Like-named read-outs stand apart in the source and are kept apart here.

System: SARS-CoV-2
Details: 10 µM

Compound | % Inh. (% Inhibition of SARS-CoV-2) | other results
Cc1ccc(CC2(O)CCN(CCOc3ccc(O)cc3)CC2)cc1 [CO-101244] | 60.2% | –
COc1cc(N2CCC(N)CC2)ccc1Nc1ncc(Cl)c(-c2c[nH]c3ccccc23)n1 [AZD3463] | 96.5% | –
COc1cc2c(cc1OC)CN(C(=O)/C=C/c1c(-c3ccccc3)n(C)c3ncccc13)CC2 [SIS3] | 99.3% | –
Cc1cc(C)c(NC(=O)C2CC3CCC2C3)c(C)c1 (centres unmarked) [ML-213] | 69.5% | –
NC(CO)(CO)CO.Nc1nccc(Oc2ccc(NC(=O)c3cn(COP(=O)(O)O)cc(-c4ccc(F)cc4)c3=O)cc2F)c1Cl [SCR-1481B1] | 89.3% | –
COc1ccc2nc3cc(Cl)ccc3c(Nc3cc(CN4CCCC4)c(O)c(CN4CCCC4)c3)c2n1.O=P(O)(O)O.O=P(O)(O)O.O=P(O)(O)O.O=P(O)(O)O [PYRONARIDINE TETRAPHOSPHATE] | 80.6% | –
N#Cc1cnc2cnc(NCc3cccnc3)cc2c1Nc1ccc(F)c(Cl)c1 [TC-S-7006] | 100.7% | –
CN(C)CCNc1nc2cc(O)ccc2c2c1C(=O)c1ccccc1-2.Cl.Cl [TAS-103 (dihydrochloride)] | 92.6% | –
CO[C@@H](C)Cn1c(=O)n(C)c2cnc3ccc(-c4cncc(C(C)(C)O)c4)cc3c21 [LY3023414] | 92.7% | –
C[C@@H]1COCCN1c1cc(C2(S(C)(=O)=O)CC2)nc(-c2cccc3[nH]ccc23)n1 [AZ20] | 100.0% | –
Cl.Cl.Fc1ccc(C(OCCN2CCN(C/C=C/c3ccccc3)CC2)c2ccc(F)cc2)cc1 [GBR-13069] | 66.7% | –
Afatinib (dimaleate) | 60.2% | –
COc1ccc(CC2NCCc3c2[nH]c2ccc(C)cc32)c(Cl)c1OC (centres unmarked) [LY266097] | 89.3% | –
Nc1cc(C(F)(F)F)c(-c2cc(N3CCOCC3)nc(N3CCOCC3)n2)cn1 [BKM120 (NVP-BKM120)] | 97.6% | –
N#Cc1ccc(N2N=C3c4ccc(C(=O)O)cc4CC[C@@H]3[C@@H]2C2CCCC2)cc1Cl [PF-03882845] | 58.6% | –
O=C(Nc1ccccc1Br)N[C@@H]1CCN(c2ccc(C(F)(F)F)cn2)C1 [SB705498] | 64.6% | –
OC12C3C4CC5C6C4C1C6C(C53)N2CCc1cccc(F)c1 (centres unmarked) [TC1] | 53.2% | –
NCC(=O)Nc1ccc(-n2nc(C(F)(F)F)cc2-c2ccc3c(ccc4ccccc43)c2)cc1 [AR-12] | 85.7% | –
CCCCCC(O)c1cccc(OCc2ccc3ccccc3n2)c1 [REV-5901/L-655,238] | 113.5% | –
O=C1NC(=O)c2cc(Nc3ccccc3)c(Nc3ccccc3)cc21 [CGP-52411] | 94.5% | –
CC(=O)[C@@]12O[C@](C)(c3ccccc3)O[C@@H]1C[C@H]1[C@@H]3CCC4=CC(=O)CC[C@]4(C)[C@H]3CC[C@@]12C [algestone-acetophenide] | 96.0% | –
COc1ccc(NC(=O)c2ccc(-c3ccc(-c4noc(C)n4)cc3C)cc2)cc1OCCN(C)C [SB-216641] | 57.6% | –
CC(CNS(=O)(=O)C(C)C)c1ccc(-c2ccc(C#N)cc2)cc1 (centres unmarked) [LY-404187] | 80.4% | –
COc1ncc2cc(C(=O)Nc3cc(C(=O)NCc4cccc(Cl)c4)ccc3Cl)c(=O)[nH]c2n1 [TC-S-7004] | 77.3% | –

Compound | % Inh. (% Inhibition of SARS-CoV-2) | other results
COc1ccccc1C(=O)Nc1cccc(NC(=O)c2cccc(C)c2)c1 [ML-365] | 92.7% | –
COc1cc(Br)c(S(=O)(=O)Nc2ccc(Cl)c(O[C@@H]3CCN(C)C3)c2)cc1OC [SB-657510] | 101.1% | –
FC(F)(F)c1ccc(CNc2ccc(Cc3c[nH]c4ncccc34)cn2)cc1 [PLX-647] | 95.7% | –
O=C1/C(=C/c2ccccc2)C[C@@]2(O)[C@H]3Cc4ccc(O)c5c4[C@@]2(CCN3CC2CC2)[C@H]1O5 [BNTX] | 77.3% | –
CSc1nc(-c2ccnc(NC(C)c3ccccc3)c2)c(-c2ccc(F)cc2)[nH]1 (centres unmarked) [ML-3403] | 50.3% | –
NC1(Cc2ccc(Cl)cc2)CCN(c2ncnc3[nH]ccc23)CC1 [CCT128930] | 86.7% | –
Cc1cc(-c2nc3cc(F)ccc3s2)ccc1NC(=O)[C@@H](N)CCCCN.Cl.Cl [phortress] | 67.1% | –
COc1ccc(-c2ccc3c(N4CCOC[C@@H]4C)nc(N4CCOC[C@@H]4C)nc3n2)cc1CO [AZD8055] | 105.2% | –
CC(C)CNc1ccnc(NCc2csc(-c3ccccc3)n2)n1 [KHS-101] | 91.2% | –
O=[N+]([O-])c1ccccc1S(=O)(=O)NCC1CCC(CNC[C@H]2CCc3ccccc3C2)CC1 (some centres unmarked) [NTNCB] | 92.7% | –
Cc1ccc2cc(-c3c(C)ccc(C(=O)c4c(-c5ccccc5)n(C)n(-c5ccccc5)c4=O)c3N)ccc2n1 [AMG-PERK-44] | 127.9% | –
Cc1nc(NC(=O)N2CCC[C@H]2C(N)=O)sc1-c1csc(C(C)(C)C)n1 [A66] | 54.4% | –
Chlorophyllin (sodium copper salt) | 66.7% | –
CC[C@H](CO)Nc1nc(NCc2ccc(-c3ccccn3)cc2)c2ncn(C(C)C)c2n1 [CR8-(R)] | 76.6% | –
verteporfin | 139.9% | –
O=C1Nc2ccccc2C2(CCN(CCc3ccc(C(F)(F)F)cc3)CC2)O1 [RS-102895] | 82.1% | –
CC(C)c1ccc2c(c1)CC[C@H]1[C@](C)(CN)CCC[C@]21C [lylamine] | 76.4% | –
N#CC(=C(N)Sc1ccc(N)cc1)c1ccccc1C(F)(F)F [MEK1-2-inhibitor] | 66.9% | –
SNS-314 methanesulfonate | 81.4% | –
CC[C@@]1(O)C(=O)OCc2c1cc1n(c2=O)Cc2cc3c(N)cccc3nc2-1 [9-aminocamptothecin] | 80.3% | –
c1ccc2sc(SN3CCOCC3)nc2c1 [N-oxydiethylenebenzothiazole-2-sulfenamide] | 64.6% | –
Cc1cc(I)ccc1Nc1c(C(=O)NOCC2CC2)cc(F)c(F)c1F [PD-198306] | 51.6% | –
Fc1ccc(CNc2ncnc3ccc(F)cc23)cc1 [spautin-1] | 92.1% | –
COC(=O)Nc1ccc(-c2nc(N3CCOCC3)c3cnn(C4CCN(Cc5cccnc5)CC4)c3n2)cc1 [WYE-687] | 105.8% | –

Compound | % Inh. (% Inhibition of SARS-CoV-2) | other results
COc1cc2ncnc(Nc3cccc(Cl)c3)c2cc1OC [AG-1478 (Tyrphostin AG-1478), Tyrphostin AG-1478] | 73.9% | –
O=C(NCCCCCCNC(=O)ON=C1CCCCC1)ON=C1CCCCC1 [RHC-80267] | 63.9% | –
CCc1ccccc1OC[C@@H](O)CN[C@H]1CCCc2ccccc21 [SR-59230A] | 57.3% | –
CC(C)n1nc(-c2ccc3oc(N)nc3c2)c2c(N)ncnc21 [INK 128 (MLN0128)] | 84.9% | –
CCn1c(=O)n(C2=C(CO)CN(CC3CCCCCCC3)CC2)c2ccccc21 [trap-101] | 77.9% | –
COc1ccc(OC)c(CN(C(C)=O)c2cc(F)ccc2Oc2ccccc2)c1 [DAA-1106] | 91.0% | –
TC-I-2014 | 97.8% | –
C[n+]1c2cc(N)ccc2cc2ccc(N)cc21.[Cl-] [ACRIFLAVINIUM HYDROCHLORIDE] | – | % Inh. (% Inhibition of SARS-CoV-2) (HYDROCHLORIDE): 99.5%; % Inh. (% Inhibition of SARS-CoV-2) (listed as Acriflavine hydrochloride, HYDROCHLORIDE): 69.4%
c1ccc(CCCCN2CCC(c3ccccc3)CC2)cc1 [4-PPBP] | 63.1% | –
CCOc1ccc(Nc2nc(-c3c(C)nc4ccccn34)cs2)cc1 [JK-184] | 65.2% | –
CCN(CC)CC1CCN(c2ncc3ncnc(Nc4ccc(F)c(Cl)c4)c3n2)CC1.Cl.Cl [BIBU-1361] | 78.5% | –
CC(C)(C)c1ccc(NC(=O)N2CCN(c3ncccc3Cl)CC2)cc1 [BCTC] | 86.4% | –
c1cc2c(cc1C1CCCCC1)c1c3n2CCNC3CCC1 (centres unmarked) [tetrindole] | 75.2% | –
CCOc1cc(C(C)(C)C)ccc1C1=N[C@@](C)(c2ccc(Cl)cc2)[C@@](C)(c2ccc(Cl)cc2)N1C(=O)N1CCN(CCCS(C)(=O)=O)CC1 [RG7112 (RO5045337)] | 88.5% | –
CC(C)(C)n1nc(-c2cccc3ccccc23)c2c(N)ncnc21 [1-naphthyl-PP1] | 94.1% | –
O=C(Nc1cnccc1Cl)N1CCN(Cc2ccc3c(c2)OC(F)(F)O3)CC1 [JNJ-42165279] | 94.9% | –
Cc1ccc(NC(=O)C(C)C)cc1C1CCN(Cc2ccc(Oc3ccc(F)c(F)c3)cc2)CC1 [SNAP-94847] | 91.4% | –
Nizofenone fumarate | 52.4% | –
CCCCCCc1ccc(O)cc1O.Nc1c2ccccc2nc2ccccc12 [ACRISORCIN] | 61.7% | –
c1ccc2nc(C3=NCCN3)cnc2c1 [BU-239] | 60.1% | –
O=C1NC(=O)/C(=C/c2cccc(C(F)(F)F)c2)S1 [SMI-4a] | 89.9% | –
CCCCCCCCc1ccc(-c2ccc(C(=O)O)cc2)cc1 [AC-55649] | 63.1% | –
